Results published in patent publication US9815796B2 (Merck Sharp & Dohme Corp., priority 2013, dated 2017).
Blank lines part the entries; values can stand above or below the compound they belong to.

Molecular target: human PDE2A1 (Homo sapiens (Human), UniProt O00408)
Assay: IMAP FP PDE selectivity panel, human PDE2A1
Assay type: biochemical
Conditions: Human PDE2, Lab B; read-out: Human PDE2 Ki (nM) - Lab B
Procedure: Selectivity for PDE2, as compared to other PDE families, was assessed using the IMAP® technology. Human PDE 10A2 enzyme was prepared from cytosolic fractions of transiently transfected HEK cells. All other PDE's were GST Tag human enzyme expressed in insect cells and were obtained from BPS Bioscience (San Diego, Calif.): PDE1A (Cat#60010), human PDE2A1 (Cat#60020), PDE3A (Cat#60030), PDE4A1A (Cat#60040), PDE5A1 (Cat#60050), PDE6C (Cat#60060), PDE7A (Cat#60070), PDE8A1 (Cat#60080), PDE9A2 (Cat#60090), PDE11A4 (Cat#60110).
Assays for PDE 1 through 11 were performed in parallel at room temperature in 384-well microtiter plates with an incubation volume of 20.2 μL. Solutions of test compounds were prepared in DMSO and serially diluted with DMSO to yield 30 μL of each of ten solutions differing by 3-fold in concentration, at 32 serial dilutions per plate. […] A Labcyte POD 810 (Labcyte, Sunnyvale, Calif.) was used to dispense 200 nL from each well of the titration plate to make eleven copies of the assay plate for each titration, one copy for each PDE enzyme. A solution of each enzyme (dilution from aliquots, sufficient to produce 20% substrate conversion) and a separate solution of FAM-labeled cAMP or FAM-labeled cGMP from Molecular Devices (Sunnyvale, Calif., product # R7506 or cGMP#R7508), at a final concentration of 50 nM were made in the assay buffer (10 mM Tris HCl, pH 7.2, 10 mM MgCl2, 0.05% NaN3 0.01% Tween-20, and 1 mM DTT). Note that the substrate for PDE2 is 50 nM FAM cAMP containing 1000 nM of cGMP. The enzyme and the substrate were then added to the assay plates in two consecutive additions of 10 μL and then shaken to mix. The reaction was allowed to proceed at room temperature for 60 minutes. A binding solution was then made from the kit components, comprised of 80% Solution A, 20% Solution B and binding reagent at a volume of 1/600 the total binding solution. The enzymatic reaction was stopped by addition of 60 μL of the binding solution to each well of the assay plate. The plates were sealed and shaken for 10 seconds. The plates were incubated at room temperature for one hour, then the parallel and perpendicular fluorescence was measured using a Tecan Genios Pro plate reader (Tecan, Switzerland). The apparent inhibition constants for the compounds against all 11 PDE's was determined from the parallel and perpendicular fluorescent readings as described for PDE10 FP assay using the following apparent KM values for each enzyme and substrate combination: PDE1A (FAM cGMP) 70 nM, human PDE2A1 (FAM cAMP) 10,000 nM, PDE3A (FAM cAMP) 50 nM, PDE4A1A (FAM cAMP) 1500 nM, PDE5A1 (FAM cGMP) 400 nM, PDE6C (FAM cGMP) 700 nM, PDE7A (FAM cAMP) 150 nM, PDE8A1 (FAM cAMP) 50 nM, PDE9A2 (FAM cGMP) 60 nM, PDE10A2 (FAM cAMP) 150 nM, PDE11A4 (FAM cAMP) 1000 nM. The intrinsic PDE2 inhibitory activity of a compound which may be used in accordance with the present invention may be determined by these assays.

Chain of human PDE2A1 (O00408 other isoform, or with tags, fused parts or gaps): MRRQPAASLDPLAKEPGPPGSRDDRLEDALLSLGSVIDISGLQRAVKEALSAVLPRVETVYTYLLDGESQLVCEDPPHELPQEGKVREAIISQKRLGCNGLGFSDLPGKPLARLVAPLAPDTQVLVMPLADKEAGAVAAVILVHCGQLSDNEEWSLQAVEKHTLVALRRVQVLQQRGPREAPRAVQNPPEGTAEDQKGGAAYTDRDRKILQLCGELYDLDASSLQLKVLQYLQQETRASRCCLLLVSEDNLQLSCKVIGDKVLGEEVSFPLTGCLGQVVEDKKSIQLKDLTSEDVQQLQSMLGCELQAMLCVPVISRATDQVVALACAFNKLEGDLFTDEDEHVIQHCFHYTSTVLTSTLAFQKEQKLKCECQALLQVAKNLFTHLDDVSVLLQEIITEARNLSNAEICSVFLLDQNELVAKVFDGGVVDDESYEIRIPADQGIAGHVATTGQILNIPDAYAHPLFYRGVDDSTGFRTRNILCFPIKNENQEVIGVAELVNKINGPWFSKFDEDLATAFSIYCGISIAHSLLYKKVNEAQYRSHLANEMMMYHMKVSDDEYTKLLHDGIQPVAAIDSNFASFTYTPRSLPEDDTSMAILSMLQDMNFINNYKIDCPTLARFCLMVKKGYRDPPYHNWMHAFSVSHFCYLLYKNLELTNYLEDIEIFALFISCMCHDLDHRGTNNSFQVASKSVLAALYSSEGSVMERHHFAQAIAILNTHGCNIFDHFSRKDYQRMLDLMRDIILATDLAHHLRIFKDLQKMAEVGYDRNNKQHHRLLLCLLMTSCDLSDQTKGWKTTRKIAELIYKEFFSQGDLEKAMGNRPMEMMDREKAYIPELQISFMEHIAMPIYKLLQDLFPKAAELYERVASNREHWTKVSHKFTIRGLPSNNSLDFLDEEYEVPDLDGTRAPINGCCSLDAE

SMILES: CC(C)(C)[C@@H](NC(=O)c1cc(=O)[nH]c(-c2ccccc2)n1)c1ccc(C(F)(F)F)cc1F [Example 545, N-{(1R)-1-[2-fluoro-4-(trifluoromethyl)phenyl]-2,2-dimethylpropyl}-6-oxo-2-phenyl-1,6-dihydropyrimidine-4-carboxamide]
- Ki: 1.2 nM

SMILES: O=C(N[C@@H](c1ccc(C2CC2)cc1)C1CC1)c1cc(=O)[nH]c(-c2ccccc2)n1 [Example 544, N-[(R)-cyclopropyl(4-cyclopropylphenyl)methyl]-6-oxo-2-phenyl-1,6-dihydropyrimidine-4-carboxamide]
- Ki: 2.4 nM

SMILES: CC(C)(C)[C@@H](NC(=O)c1cc(=O)[nH]c(-c2ncccn2)n1)c1ccc2c(c1)OC(F)(F)O2 [Example 586, N-[(1R)-1-(2,2-difluoro-1,3-benzodioxol-5-yl)-2,2-dimethylpropyl]-6-oxo-1,6-dihydro-2,2′-bipyrimidine-4-carboxamide]
- Ki: 19 nM

SMILES: O=C(N[C@@H]1CCCc2cc(C(F)(F)F)ccc21)c1cc(=O)[nH]c(-c2ccccc2)n1 [Example 552, 6-oxo-2-phenyl-N-[(1R)-6-(trifluoromethyl)-1,2,3,4-tetrahydronaphthalen-1-yl]-1,6-dihydropyrimidine-4-carboxamide]
- Ki: 96 nM

SMILES: CC1([C@@H](NC(=O)c2cc(=O)[nH]c(-c3ncccn3)n2)c2ccc(S(F)(F)(F)(F)F)cc2)CC1 [Example 564, N-{(R)-(1-methylcyclopropyl)[4-(pentafluoro-λ^6-sulfanyl)phenyl]methyl}-6-oxo-1,6-dihydro-2,2′-bipyrimidine-4-carboxamide]
- Ki: 6.7 nM

SMILES: CC(C)(C)[C@@H](NC(=O)c1cc(=O)[nH]c(-c2ccccc2)n1)c1ccc(S(F)(F)(F)(F)F)cc1 [Example 540, N-{(1R)-2,2-dimethyl-1-[4-(pentafluoro-λ^6-sulfanyl)phenyl]propyl}-6-oxo-2-phenyl-1,6-dihydropyrimidine-4-carboxamide]
- Ki: 1.6 nM

SMILES: CC(C)(C)[C@@H](NC(=O)c1cc(=O)[nH]c(-c2ncccn2)n1)c1ccc(OC(F)F)c(F)c1 [Example 589, N-{(1R)-1-[4-(difluoromethoxy)-3-fluorophenyl]-2,2-dimethylpropyl}-6-oxo-1,6-dihydro-2,2′-bipyrimidine-4-carboxamide]
- Ki: 22 nM

SMILES: CC(C)(C)[C@@H](NC(=O)c1cc(=O)[nH]c(-c2ccccc2)n1)c1ccc(C(F)(F)F)c(F)c1 [Example 538, N-{(1R)-1-[3-fluoro-4-(trifluoromethyl)phenyl]-2,2-dimethylpropyl}-6-oxo-2-phenyl-1,6-dihydropyrimidine-4-caboxamide]
- Ki: 1.4 nM

SMILES: CC(C)(C)[C@@H](NC(=O)c1cc(=O)[nH]c(-c2ccccc2)n1)c1ccc(C2CC2)cc1 [Example 536, N-[(1R)-1-(4-cyclopropylphenyl)-2,2-dimethylpropyl]-6-oxo-2-phenyl-1,6-dihydropyrimidine-4-carboxamide]
- Ki: 0.51 nM

SMILES: O=C(NC1(c2ccc(S(F)(F)(F)(F)F)cc2)CC1)c1cc(=O)[nH]c(-c2ccccc2)n1 [Example 553, 6-oxo-N-{1-[4-(pentafluoro-λ^6-sulfanyl)phenyl]cyclopropyl}-2-phenyl-1,6-dihydropyrimidine-4-carboxamide]
- Ki: 10 nM

SMILES: Cc1nc(C(=O)NC(C)(C)c2ccc(C(F)(F)F)cc2C)cc(=O)[nH]1 [Example 595, 2-methyl-N-{1-methyl-1-[2-methyl-4-(trifluoromethyl)phenyl]ethyl}-6-oxo-1,6-dihydropyrimidine-4-carboxamide]
- Ki: 37 nM

SMILES: CCc1nc(C(=O)N[C@H](C)c2ccc(S(F)(F)(F)(F)F)cc2)cc(=O)[nH]1 [Example 599, 2-ethyl-6-oxo-N-{(1R)-1-[4-(pentafluoro-λ^6-sulfanyl)phenyl]ethyl}-1,6-dihydropyrimidine-4-carboxamide]
- Ki: 10 nM

SMILES: CC(C)[C@@H](NC(=O)c1cc(=O)[nH]c(-c2ccccc2)n1)c1ccc(C2(C)CC2)cc1 [Example 533, N-{(1R)-2-methyl-1-[4-(1-methylcyclopropyl)phenyl]propyl}-6-oxo-2-phenyl-1,6-dihydropyrimidine-4-carboxamide]
- Ki: 8 nM

SMILES: Cc1cc(C(F)(F)F)ccc1C(C)(C)NC(=O)c1cc(=O)[nH]c(-c2ncccn2)n1 [Example 569, N-{1-methyl-1-[2-methyl-4-(trifluoromethyl)phenyl]ethyl}-6-oxo-1,6-dihydro-2,2′-bipyrimidine-4-carboxamide]
- Ki: 139 nM

Next, values leading:

- Ki: 48 nM
SMILES: CC(C)(C)C(NC(=O)c1cc(=O)[nH]c(-c2ncco2)n1)c1ccc(C(F)(F)F)cc1 (single isomer, unassigned) [Example 682, (R)- or (S)-N-(2,2-dimethyl-1-(4-(trifluoromethyl)phenyl)propyl)-2-(oxazol-2-yl)-6-oxo-1,6-dihydropyrimidine-4-carboxamide]

- Ki: > 2960 nM
SMILES: CC(NC(=O)c1cc(=O)[nH]c(-c2ccccc2)n1)c1ccc(C(C)(C)C(F)(F)F)cc1 (single isomer, unassigned) [Example 698, (S)- or (R)-6-oxo-2-phenyl-N-(1-(4-(1,1,1-trifluoro-2-methylpropan-2-yl)phenyl)ethyl)-1,6-dihydropyrimidine-4-carboxamide]

- Ki: > 2960 nM
SMILES: CC(NC(=O)c1cc(=O)[nH]c(C2CC2)n1)c1ccc(C(C)(C)C(F)(F)F)cc1 (single isomer, unassigned) [Example 696]

- Ki: 2.6 nM
SMILES: Cc1nc(C(=O)NC(c2ccc(S(F)(F)(F)(F)F)cc2F)C(C)(C)C)cc(=O)[nH]1 (single isomer, unassigned) [Example 720, (R)- or (S)-N-(1-(2-fluoro-4-(pentafluoro-λ^6-sulfanyl)phenyl)-2,2-dimethylpropyl)-2-methyl-6-oxo-1,6-dihydropyrimidine-4-carboxamide]

- Ki: 102 nM
SMILES: Cc1nc(C(=O)NC(CO)(CO)c2ccc(C(F)(F)F)cc2)cc(=O)[nH]1 [Example 605, N-{2-hydroxy-1-(hydroxymethyl)-1-[4-(trifluoromethyl)phenyl]ethyl}-2-methyl-6-oxo-1,6-dihydropyrimidine-4-carboxamide]

- Ki: 139 nM
SMILES: Cc1nc(C(=O)NC(C)(C)c2cc(F)c(C(F)(F)F)cc2Cl)cc(=O)[nH]1 [Example 659, N-{1-[2-chloro-5-fluoro-4-(trifluoromethyl)phenyl]-1-methylethyl}-2-methyl-6-oxo-1,6-dihydropyrimidine-4-carboxamide]

- Ki: 4.4 nM
SMILES: Cc1nc(C(=O)N[C@](C)(CO)c2ccc(C(F)(F)F)cc2Cl)cc(=O)[nH]1 [Example 640, N-{(1S)-1-[2-chloro-4-(trifluoromethyl)phenyl]-2-hydroxy-1-methylethyl}-2-methyl-6-oxo-1,6-dihydropyrimidine-4-carboxamide]

- Ki: 3.2 nM
SMILES: CCc1nc(C(=O)NC(C)(C)c2ccc(C(F)(F)F)cc2Cl)cc(=O)[nH]1 [Example 608, N-{1-[2-chloro-4-(trifluoromethyl)phenyl]-1-methylethyl}-2-ethyl-6-oxo-1,6-dihydropyrimidine-4-carboxamide]

- Ki: > 2960 nM
SMILES: CC1(c2ccc(C(NC(=O)c3cc(=O)[nH]c(-c4ncccn4)n3)C(C)(C)C)cc2F)CC1 (single isomer, unassigned) [Example 716, (S)- or (R)-N-(1-(3-fluoro-4-(1-methylcyclopropyl)phenyl)-2,2-dimethylpropyl)-6-oxo-1,6-dihydro-[2,2′-bipyrimidine]-4-carboxamide]

- Ki: 478 nM
SMILES: Cc1cnc(-c2nc(C(=O)N[C@H](C)c3ccc(C(F)(F)F)cc3)cc(=O)[nH]2)o1 [Example 676, (R)-2-(5-methyloxazol-2-yl)-6-oxo-N-(1-(4-(trifluoromethyl)phenyl)ethyl)-1,6-dihydropyrimidine-4-carboxamide]

- Ki: > 2960 nM
SMILES: Cc1nc(C(=O)NC(C)c2ccc(C3(C(F)(F)F)CC3)cc2)cc(=O)[nH]1 (single isomer, unassigned) [Example 686, (S)- or (R)-2-methyl-6-oxo-N-(1-(4-(1-(trifluoromethyl)cyclopropyl)phenyl)-ethyl)-1,6-dihydropyrimidine-4-carboxamide]
